Measurements from patent US20140179615A1, “Glutathione and Acetaminophen Composition and Preparation Method Thereof” (Hainan Weikang Pharmaceutical (Qianshan) Co., Ltd., priority 2012, published 2014).

Columns and labels:
[1] = tested on: healthy male Kunming mice; assay: Impact on liver damage in mice: serum AST and ALT activity after gavage; format: in vivo; conditions: gavage 0.5 g/kg, 4 d at intervals of 24 h, mean ± spread, 10 mice per group
Method: 1. Materials: healthy male Kunming mice (weight: 20-22 g)
Divide 50 mice into 5 Groups: Control Group, Model Group, Embodiment Group 1, Embodiment Group 2 and Embodiment Group 3; 10 mice for each group. The mice are fed freely two days and fasted 16 h before the experiment. Experimental Treatment: the mice respectively of Control Group, Model Group, Embodiment Group 1, Embodiment Group 2 and Embodiment Group 3 are separately given normal saline, acetaminophen solution (0.5 g/kg), tablets (0.5 g/kg) made in Embodiment 1, oral solution (0.5 g/kg) made in Embodiment 2, and granules made in Embodiment 3 by gavage. The mice are treated continuously 4 d at intervals of 24 h. The mice of control group are given 1% sodium carboxymethylcellulose (0.15 g/kg) by gavage 1 h after last treatment and sacrificed by cervical dislocation after 24 h.
Preparation of Blood Serum: take blood from mouse carotid artery, stand the blood, then make it centrifuged at 3,000 r/min for 15 min to separate out the serum, and put the serum in refrigerator (−20° C.) for storage.
Measuring Indicator and Method: take the prepared serum on Sigma95308 automatic biochemistry analyzer to determine the activity of aspartate transaminase (AST/GOT) and alanine aminotransferase (ALT/GPT).
Impact of Embodiments on Liver Damage

[2] = after taken, cited from earlier work

CC(=O)Nc1ccc(O)cc1 [Model Group, Acetaminophen]
ALT (alanine aminotransferase, ALT/GPT) activity in serum [1]: 87.8 ± 9.5 IU · L^−1
AST (aspartate transaminase, AST/GOT) activity in serum [1]: 245.6 ± 18.3 IU · L^−1
Share combined with glucuronide ([2]; liver metabolism): 60%
Share combined with sulfuric acid ([2]; liver metabolism): 30%
Share metabolized by liver cytochrome P450 oxidase system to NAPQI [2]: 4%-5
Share of acetaminophen metabolized by the liver [2]: 90%
